Data reported in patent US5795907A, “Gastin and CCK receptor ligands” (James Black Foundation Limited, priority 1994, dated 1998).

Tests used:
gastrin = target: T1, gastrin (Rattus norvegicus, UniProt P30553); assay: gastrin antagonist activity in an immature rat stomach assay (pentagastrin-stimulated acid secretion); details: cumulative pentagastrin dose-response curves after 60 min with drug; for Kb: read-out: Gastrin pKB (converted)
T1 construct: The stomach was lowered into a jacketed organ bath containing 40 ml of buffered solution; from tissue; host or cells: isolated perfused whole stomach of immature rats (ca. 21 days old)
T1 sequence (P30553 1-452): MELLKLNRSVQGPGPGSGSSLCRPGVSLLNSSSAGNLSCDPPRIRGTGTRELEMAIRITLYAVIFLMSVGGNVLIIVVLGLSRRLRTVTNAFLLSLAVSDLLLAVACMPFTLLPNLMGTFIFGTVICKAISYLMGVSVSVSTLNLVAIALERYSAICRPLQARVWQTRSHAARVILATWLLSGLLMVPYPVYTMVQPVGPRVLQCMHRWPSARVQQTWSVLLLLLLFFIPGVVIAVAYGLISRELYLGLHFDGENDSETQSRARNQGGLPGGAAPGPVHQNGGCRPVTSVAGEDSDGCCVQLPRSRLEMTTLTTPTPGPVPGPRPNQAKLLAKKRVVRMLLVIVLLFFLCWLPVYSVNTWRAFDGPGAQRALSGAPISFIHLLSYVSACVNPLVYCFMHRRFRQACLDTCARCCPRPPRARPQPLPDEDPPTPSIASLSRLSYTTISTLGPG
Description: The compounds of the examples were also tested for gastrin antagonist activity in an immature rat stomach assay. The procedure was as follows:
The oesophagus of immature rats (33-50 g, ca. 21 days old) was ligated at the level of the cardiac sphincter and the duodenal sphincter was cannulated. The stomach was excised and flushed with ca. 1 ml of unbuffered physiological saline solution. The fundus was punctured and cannulated. A further 4-5 ml of unbuffered solution was flushed through the stomach to ensure the preparation was not leaking. The stomach was lowered into a jacketed organ bath containing 40 ml of buffered solution containing 3×10^-8 M 5-methylfurmethide, maintained at 37° and gassed vigorously with 95% O2 /5% CO2. The stomach was continuously perfused at a rate of 1 ml min^-1 with unbuffered solution gassed with 100% O2 with the perfusate passing over an internally referenced pH-electrode fixed 12 cm above the stomach.
After 120 min of stabilisation the drugs were added directly to the serosal solution in the organ bath and after a further 60 min cumulative pentagastrin dose-response curves were started. Changes in acid secretion were monitored and the curves analysed according to Black et.al., Br. J. Pharmacol., 1985, 86, 581.

CCKB receptor = target: T2, CCKB receptor (Mus musculus, UniProt P56481); assay: CCKB receptor radioligand binding assay in mouse cortical membranes ([125I]-CCK8S); details: [125I]-CCK8S 200 pM, 150 min at 21±3°; for Ki: read-out: CCKB pKi (converted)
T2 construct: The cortex was dissected, weighed and homogenised in 40ml ice-cold buffer; tissue Charles River (supplier of the CD1 mice); host or cells: cerebral cortex membranes of male CD1 mice
T2 sequence (P56481 1-453): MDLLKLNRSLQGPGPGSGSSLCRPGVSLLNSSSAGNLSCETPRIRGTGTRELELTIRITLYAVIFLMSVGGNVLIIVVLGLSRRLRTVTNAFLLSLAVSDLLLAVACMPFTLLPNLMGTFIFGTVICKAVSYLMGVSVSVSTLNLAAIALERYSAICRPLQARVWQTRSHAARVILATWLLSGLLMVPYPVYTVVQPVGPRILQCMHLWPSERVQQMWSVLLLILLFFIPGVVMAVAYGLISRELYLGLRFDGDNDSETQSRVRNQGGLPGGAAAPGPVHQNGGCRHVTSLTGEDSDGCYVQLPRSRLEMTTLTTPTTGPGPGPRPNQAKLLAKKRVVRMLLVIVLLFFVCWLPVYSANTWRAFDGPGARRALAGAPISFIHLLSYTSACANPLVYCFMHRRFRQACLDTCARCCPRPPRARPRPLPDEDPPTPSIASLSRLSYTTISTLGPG
Description: The compounds of the examples were tested for binding at the CCKB receptor in mouse cortical membranes by means of a radioligand binding assay. The procedure was as follows:
The whole brains from male mice (CD1 22-25 g; Charles River) were removed and placed in ice-cold buffer (pH7.2 @ 21±3°) of the following composition (mM); 10 HEPES, 130 NaCl, 4.7 KCl, 5 MgCl2, 1 EDTA and containing 0.25g.^-1 bacitracin. The cortex was dissected, weighed and homogenised in 40ml ice-cold buffer using a Teflon-in-glass homogeniser. The homogenate was centrifuged at 39,800g for 20 min at 4°, the supernatant discarded and the pellet resuspended by homogenisation in fresh buffer. The homogenate was recentrifuged (39,800 g; 20 min @ 4°) and the final pellet was resuspended in HEPES buffer to give a tissue concentration of 2 mg.ml^-1 (original wet weight).
The membranes ([…]) were incubated for 150 min at 21±3° in a final volume of 0.5 ml with HEPES buffer containing [^125 I]-CCK8S (0.05 ml; 200 pM NEN 2200 Ci.mmol^-1) and competing compound. Total and non-specific binding of [^125 I]-CCK8S were defined using 0.05 ml of buffer and 0.05 ml of […] L-365,260, respectively. The assay was terminated by rapid filtration through pre-soaked Whatman GF/B filters using a Brandell Cell harvester. The filters were washed (3×3 ml) with ice-cold 50 mM Tris-HCl (pH7.4 @ 4° C.) and bound radioactivity determined by counting (1 min.) in a gamma-counter.

CCKA = target: T3, CCKA (Cavia porcellus, UniProt Q63931); assay: CCKA radioligand binding assay in guinea-pig pancreas membranes ([125I]-CCK8(S)); details: PD134,308 present, 150 minutes at 21±3°, read-out: CCKA pKi (converted)
T3 construct: The pancreatata were homogenised in 40 ml ice-cold HEPES buffer using a polytron; from tissue; host or cells: pancreas membranes of male Dunkin Hartley guinea-pigs
T3 sequence (Q63931 1-430): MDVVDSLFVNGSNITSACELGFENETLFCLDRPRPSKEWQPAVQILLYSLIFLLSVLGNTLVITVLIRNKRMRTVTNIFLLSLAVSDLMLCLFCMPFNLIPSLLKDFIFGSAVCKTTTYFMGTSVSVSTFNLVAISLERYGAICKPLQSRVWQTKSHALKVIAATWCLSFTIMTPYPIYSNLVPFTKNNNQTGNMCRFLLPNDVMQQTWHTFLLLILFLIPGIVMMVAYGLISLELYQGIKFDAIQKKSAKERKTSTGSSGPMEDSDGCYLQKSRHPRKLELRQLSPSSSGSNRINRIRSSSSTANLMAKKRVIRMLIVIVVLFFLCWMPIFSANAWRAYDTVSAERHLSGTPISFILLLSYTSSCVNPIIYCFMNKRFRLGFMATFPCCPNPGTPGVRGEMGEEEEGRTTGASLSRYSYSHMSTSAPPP
Description: The compounds of the examples were also tested in a CCKA as follows:
The pancreatata were removed from male guinea-pigs (200-300 g; Dunkin Hartley) and placed in ice-cold HEPES buffer (pH 7.2 @ 21 ±3). The pancreatata were homogenised in 40 ml ice-cold HEPES buffer using a polytron (Brinkmann, PT10, setting 10) 4×1 second. The homogenate was centrifuged at 39,800 g for 15 min at 4°. The supernatant was discarded and the pellet re-suspended using a Teflon-in-glass homogeniser in 20 volumes of fresh buffer and re-centrifuged as above.
The final pellet was re-suspended using a Teflon-in-glass homogeniser to a tissue concentration of 1 mg.ml^-1 (original wet weight), and filtered through 500 μm pore-size Nytex mesh.
The membranes (400 μl; containing 0.375 μM PD134,308) are incubated for 150 minutes at 21±3° in a final volume of 0.5 ml with HEPES buffer containing [^125 I]-CCK8 (S) (50 μl; […]) and competing compound. Total and non-specific binding of [^125 I]-CCK8 (S) are defined using 50 μl of buffer and 50 μl of 100 nM L-364,718 respectively. The assay is terminated by rapid filtration through pre-soaked Whatman GF/B filters using a Brandell Cell Harvester. The filters were washed (3×3 ml) with ice-cold 50 mM Tris HCl (pH 7.4 at 4°) and bound radioactivity is determined by counting (1 min) in a gamma counter.

Row | Molecule | Gastrin pKB (gastrin) | CCKB pKi (CCKB receptor) | Kb (gastrin) | Ki (CCKB receptor) | Ki (CCKA)
1 | CN(CC12CC3CC(CC(C3)C1)C2)C(=O)c1cc2ccccc2cc1C(=O)N1CCC[C@@H]1C(=O)O [Example 9, 2-(2R-carboxypyrrolidino-carbonyl)-3-(1-adamantanemethyl(N-methyl)aminocarbonyl)-naphthalene] |  |  | 0.501 µM | 0.251 µM | 
2 | C[C@@H](NC(=O)[C@H]1CCCN1C(=O)c1cc2ccccc2cc1C(=O)NCC12CC3CC(CC(C3)C1)C2)C(=O)O [Example 10, 2-(2R-(1R-carboxyethylaminocarbonyl)pyrrolidinocarbonyl)-3-(1-adamantanemethylaminocarbonyl)-naphthalene] |  |  | 0.316 µM | 1.58 µM | 
3 | O=C(O)CNC(=O)[C@H]1CCCN1C(=O)c1cc2ccccc2cc1C(=O)NCC12CC3CC(CC(C3)C1)C2 [Example 11, 2-(2R-carboxymethylaminocarbonylpyrrolidinocarbonyl)-3-(1-adamantanemethylaminocarbonyl)-naphthalene] |  |  | 0.251 µM | 1.26 µM | 
4 | C[C@@H](NC(=O)[C@H]1CCCN1C(=O)c1cc2ccccc2cc1C(=O)N(C)CC12CC3CC(CC(C3)C1)C2)C(=O)O [Example 12, 2-(2R-(1R-carboxyethylaminocarbonyl)pyrrolidinocarbonyl)-3-(1-adamantanemethyl(N-methyl)aminocarbonyl)-naphthalene] |  |  | 1.26 µM | 1.26 µM | 
5 | C[C@H](NC(=O)[C@H]1CCCN1C(=O)c1cc2ccccc2cc1C(=O)N(C)CC12CC3CC(CC(C3)C1)C2)C(=O)O [Example 13, 2-(2R-(1S-carboxyethylaminocarbonyl)pyrrolidinocarbonyl)-3-(1-adamantanemethyl(N-methyl)aminocarbonyl)-naphthalene] |  |  | 0.398 µM | 2 µM | 
6 | CN(CC12CC3CC(CC(C3)C1)C2)C(=O)c1cc2ccccc2cc1C(=O)N1CCC[C@@H]1C(=O)NCC(=O)O [Example 14, 2-(2R-carboxymethylaminocarbonylpyrrolidino-carbonyl)-3-(1-adamantanemethyl(N-methyl)aminocarbonyl)-naphthalene] |  |  | 0.316 µM | 1 µM | 
7 | O=C(O)c1cc(NC(=O)[C@@H](Cc2ccccc2)NC(=O)c2cc3ccccc3cc2C(=O)NCC23CC4CC(CC(C4)C2)C3)cc(C(=O)O)c1 [Example 23, 2-(1R-(3,5-dicarboxyphenylaminocarbonyl) -2-phenylethylaminocarbonyl)-3-(1-adamantanemethylaminocarbonyl)-naphthalene] |  |  | 0.0398 µM |  | 
8 | O=C(O)c1cc(NC(=O)[C@H](Cc2ccc(I)cc2)NC(=O)c2cc3cc[nH]c3cc2C(=O)NCC23CC4CC(CC(C4)C2)C3)cc(C(=O)O)c1 [Example 32, 5-(1S-(3,5-dicarboxyphenylaminocarbonyl)-2-(4-iodophenyl)ethylaminocarbonyl)-6-(1-adamantanemethylaminocarbonyl)-indole] |  |  | 0.000794 µM | 0.00398 µM | 

Next, values leading:

Row | Gastrin pKB (gastrin) | CCKB pKi (CCKB receptor) | Kb (gastrin) | Ki (CCKB receptor) | Ki (CCKA) | Molecule
9 | 7.1 | 7.0 |  |  |  | 3-(1S-(3,5-dicarboxyphenylaminocarbonyl)-2-phenylethylaminocarbonyl)-2-(1-adamantanemethylaminocarbonyl)-1-phenylnaphthalene and its regioisomer with groups at positions 2 and 3 reversed [Example 56]
10 | 8.2 | 7.3 |  |  |  | 5-(1S-(3,5-dicarboxyphenylaminocarbonyl)-5-aminopentylaminocarbonyl)-6-(1-adamantanemethylaminocarbonyl)-indole and regioisomer with substituents at positions 5 and 6 reversed [Example 65]
11 | 7.1 | 7.5 |  |  |  | 5-(1S-(3,5-methoxyaminocarbonylphenylaminocarbonyl)-2-phenylethylaminocarbonyl)-6-(1-adamantanemethylaminocarbonyl)-indole and regioisomer with substituents at positions 5 and 6 reversed [Example 38]
12 |  |  | 0.002 µM | 0.0631 µM |  | COC(=O)c1cc(NC(=O)[C@H](Cc2ccccc2)NC(=O)c2cc3cc[nH]c3cc2C(=O)NCC23CC4CC(CC(C4)C2)C3)cc(C(=O)OC)c1 [Example 35, 5-(1S-(3,5-dimethoxycarbonylphenylaminocarbonyl)-2-phenylethylaminocarbonyl)-6-(1-adamantanemethylaminocarbonyl)-indole]
13 |  |  |  | 0.0251 µM | 3.98 µM | O=C(O)c1cc(NC(=O)[C@H](Cc2ccccc2)NC(=O)c2cc3[nH]cnc3cc2C(=O)NCc2ccc3ccccc3c2)cc(C(=O)O)c1 [Example 130, 5-(1S-(3,5-dicarboxyphenylaminocarbonyl)-2-phenylethylaminocarbonyl)-6-(2-naphthalenenemethylaminocarbonyl)-benzimidazole]
